Experimental findings from patent EP2769723A1, “Compounds for use in inhibiting HIV capsid assembly” (priority 2013, dated 2014) are described below.

Where two headings read alike, the source gives them in different places. Where only a bound is given, the exact number is not on record here.

One may read the IC50 as the concentration needed to halve the response being measured.

In data set [1] the test system is TZM cells. Briefly: in vitro. Format: cell-based. To be noted: Table 4; non-cytotoxic when values higher than 80 % of 1 % DMSO treated cells. The protocol:
Cytotoxicity of selected hits tested in the assay with NL4.3 infected cells was determined by MTT test. TZM cells were seeded on the previous day on 96-well plate in the density 5 x 10^3 cells per well. The tested compounds were added in different concentrations, but the DMSO concentration never exceeded 1 % DMSO. As controls were used cells treated only with 1 % DMSO (non-toxic concentration) and cells treated with 5 % DMSO (toxic concentration). 20 µl of the CellTiter 96 Aqueous One substrate (Promega) was added to the 100 µl of culture media 48 hrs after the compounds addition and the color development was quantified 4 hrs later by measuring the absorbance at 490 nm on Saphire reader. Compounds were consider non-cytotoxic (at given concentrations) when the measured values were higher than 80 % of the value of 1 % DMSO treated cells.

Data set [2] deals with wild type NL4.3 HIV-1. Nature of the data set: Tissue culture infectivity test, TZM titration of supernatants from infected TZM cells. It is filed as cell-based. The conditions noted are these: Human immunodeficiency virus 1, TZM. The protocol:
Hits selected in the YFP-screen were further evaluated in the tissue culture experiments with cells infected with the wild type NL4.3 HIV-1. The virus for infection was obtained from co-culture of MT4 cells. The MT4 cells co-culture was synchronized for one week and then used for the infection of fresh MT 4 cells. 48 hrs post-infection was the culture supernatant harvested, cleared by the filtration through […] filter and stored in -80 °C in 1 ml aliquots. Amount of virus was quantified by enzyme-linked immuno sorbent assay (ELISA) with antibodies against HIV-1 CA (3 ng of CA/ml) and blue cell assay (1x10^5 IU/ml), which gives 3 x 10^4 IU/ng of CA.
For compounds testing the TZM cells were seeded on 96-well plate in the density 5 x 10^3 cells per well. The culture media was aspirated approx. 16 hrs later and cells were infected by the wild type NLA.3 HIV-1 by addition of 50J..il of prepared virus stock diluted with 50 µl of complete DMEM. The compounds were added twice to ensure that there are not any preassembled viruses present at the time of their addition. Compounds were first added 8 hrs post-infection and then 24 hrs later. In both cases the old culture media were replaced by 100 µl of fresh complete DMEM prior to the compounds addition. Different compounds concentrations were tested, but the DMSO concentration never exceeded 1 % DMSO. As controls were used cells treated only with 1 % DMSO and cells treated with 0,1 µM Lopinavir (HIV-1 protease inhibitor). Supernatant was harvested 24 hrs after the second compound addition, i.e. 56 hrs post-infection. Harvested supernatants were immediately titrated on the fresh TZM cells in aim to perform the infectivity assay (TZM titration), or inactivated by addition of Triton X-100 to the final concentration 0.025 % for further ELISA analysis.
TZM titration was performed on the cells seeded day before on 96-well plate in the density 5 x 10^3 cells per well. The analysis was performed for each compound concentration at three different dilutions and in duplicates. The culture media was aspired and cells were lysed 48 hrs post-infection by addition of 100 µl of SteadyGlo luciferase substrate (Promega) diluted 1 : 1 by complete DMEM. The luminescence signal was measured on Luminoskan Ascent (Thermo Labsystems) after the transfer of 80 µl of lysate to the flat bottom white polystyrene assay plates (Costar).

In data set [3] the target is T1, CA (Human immunodeficiency virus type 1 group M subtype B, UniProt P12493).
T1 construct: a fusion protein of CA with glutathione-S-transferase (CA-GST)
Briefly: ALPHA screen (AlphaScreen): inhibition of CAI binding to CA. Also noted: species or system HIV-1. To be noted: CAI-biotin peptide / CA-GST; compounds screened at 0.5-100 µM; read-out: α screen IC50. The protocol:
The AlphaScreen experiments are performed using Perkin Elmer Enspire plate reader in white 96-well ProxiPlates and PBS supplemented with 0.05% Tween20, 2mM DTT, 2% DMSO. First, Streptavidin-coated Donor beads are used to capture the CAI-biotin peptide. In the other solution, a fusion protein of CA with glutathione-S-transferase (CA-GST) is mixed with GSH Acceptor beads. Both mixtures were incubated and then mixed together. To test the ability of prepared organic compounds to inhibit the CAI binding to CA, they are screened at concentrations between 0.5-100 µM and IC50 values are calculated from the influenced signals.
Upon illumination by laser at 680 nm, Donor beads containing the photosensitizer phthalocyanine convert ambient oxygen to an excited form of singlet oxygen ^1O2. Singlet oxygen can within its half-life of ~ 4 µs diffuse approximately 200 nm in solution. If an Acceptor bead is within that proximity, which is mostly upon CA:CAI interaction, energy is transferred from the singlet oxygen to thioxene derivates within the Acceptor and signal at 520 - 620 nm is emitted.
(In general: Alpha assays give light when donor and acceptor beads are brought close together.)

[4] abbreviates: read-out: tissue culture IC50 (µM).

For the molecule `c1cncc(-c2nc(Oc3nc(-c4cccnc4)nc4ccccc34)c3ccccc3n2)c1` [OSA-296], in data set [1], the “toxicity LC50 (µM)” value is listed as “non-toxic”. In addition, the IC50 in data set [2] (setting [4]) was more than 10 µM.

With `CCOC(=O)c1sc2nc(-c3cccnc3)nc(Nc3cc(F)c(F)c(F)c3)c2c1C` [KP-199], the “toxicity LC50 (µM)” value in data set [1] is on record as “non-toxic”. Besides, the IC50 in data set [2] (setting [4]) was more than 10 µM.

For `CS(=O)(=O)c1ccc(Nc2nc(-c3ccncc3)nc3ccccc23)cc1` [AMR-551], the “toxicity LC50 (µM)” value in data set [1] is given as “non-toxic”. For the same molecule, in data set [2] (setting [4]), the IC50 is more than 10 µM.

Regarding `COCCOc1cc2nc(-c3cccnc3)nc(Nc3ccc(C(=O)O)cc3O)c2cc1OCCOC` [OSR-79 free base], the “toxicity LC50 (µM)” value in data set [1] was “non toxic”. Besides, the IC50 in data set [2] (setting [4]) is more than 25 µM.

In the case of `Fc1ccc(Nc2nc(-c3cccnc3)nc3ccccc23)cc1Cl` [KP-207], the “toxicity LC50 (µM)” value in data set [1] was “non-toxic”. In addition, the IC50 in data set [2] (setting [4]) is more than 10 µM.

Regarding `O=[N+]([O-])c1ccc(Nc2cc(-c3cccnc3)nc3ccccc23)c(F)c1` [KP-94], the 50% inhibitory concentration (IC50) in data set [2] (setting [4]) was approximately 5 µM.

Turning to `C[S+]([O-])c1ccc(Nc2nc(-c3ccncc3)nc3ccccc23)cc1` (stereo not shown) [AMR-573], the “toxicity LC50 (µM)” value in data set [1] is “non-toxic”. Also, in data set [2] (setting [4]), the IC50 was more than 10 µM.

In the case of `COc1ccc(Nc2nc(-c3cc(F)c(F)c(F)c3)nc3ccccc23)cn1` [KP-291], the “toxicity LC50 (µM)” value in data set [1] is reported as “non-toxic”. For the same molecule, the half-maximal inhibitory concentration (IC50) in data set [2] (setting [4]) was more than 10 µM.

For the molecule `Oc1ccc2nc(-c3cccnc3)nc(O)c2c1` [OSR-243], in data set [1], the “toxicity LC50 (µM)” value is reported as “non-toxic”.

Consider `CCOC(=O)c1ccccc1Nc1nc(-c2ccncc2)nc2ccccc12` [AMR-540], for which the “toxicity LC50 (µM)” value in data set [1] is “non-toxic”. Further, the IC50 in data set [2] (setting [4]) was more than 10 µM.

Regarding `c1cncc(-c2nc(NC3CC3)c3ccccc3n2)c1` [KP-216], the “toxicity LC50 (µM)” value in data set [1] is recorded as “non-toxic”. The IC50 in data set [2] (setting [4]) was more than 10 µM.

`CC(O)c1ccc(Nc2nc(-c3ccncc3)nc3ccccc23)cc1` (stereo not shown) [AMR-566]: in data set [1], the “toxicity LC50 (µM)” value is “non-toxic”. Moreover, the 50% inhibitory concentration (IC50) in data set [2] (setting [4]) is approximately 10 µM.

Consider `CCOc1nc(-c2cccnc2)nc2ccccc12` [OSR-236], for which, in data set [1], the “toxicity LC50 (µM)” value is on record as “non-toxic”. Further, the IC50 in data set [2] (Table 4, cells infected with wild type NL4.3 HIV-1, read-out: tissue culture IC50) was in the range of 10 to 15 µM.

For the molecule `N#Cc1ccc(Nc2nc(-c3ccncc3)nc3ccccc23)cc1` [AMR-549], the “toxicity LC50 (µM)” value in data set [1] is on record as “non-toxic”. Further, in data set [2] (setting [4]), the 50% inhibitory concentration (IC50) was more than 10 µM.

For `CNc1ccc(F)cc1Nc1nc(-c2ccncc2)nc2ccccc12` [AMR-558], in data set [1], the “toxicity LC50 (µM)” value is listed as “non-toxic”. In addition, the IC50 in data set [2] (setting [4]) was more than 10 µM.

Turning to `Fc1cc(F)c(Nc2nc(-c3cccnc3)nc3ccccc23)cc1F` [OSR-299], the “toxicity LC50 (µM)” value in data set [1] is “non-toxic”. Moreover, the IC50 in data set [2] (setting [4]) is approximately 10 µM.

Turning to `COc1cc2c(Nc3ccc([N+](=O)[O-])cc3F)nc(-c3cccnc3)nc2c(OC)c1OC` [KP-66], the “toxicity LC50 (µM)” value in data set [1] is “non-toxic”. The IC50 in data set [2] (setting [4]) was approximately 5 µM.

With `O=[N+]([O-])c1cc(Nc2nc(-c3cccnc3)nc3ccccc23)ccc1F` [AMR.425], the “toxicity LC50 (µM)” value in data set [1] is reported as “non toxic”. Besides, the IC50 in data set [3] stood at 7 µM.

Consider `O=[N+]([O-])c1cc(Nc2ccnc(-c3cccnc3)n2)ccc1F` [KP-43], for which the “toxicity LC50 (µM)” value in data set [1] was “non-toxic”.

On to `Oc1ccc2nc(-c3cccnc3)nc(Nc3cc(F)c(F)c(F)c3)c2c1` [OSR-217], for which the “toxicity LC50 (µM)” value in data set [1] is “non-toxic”.

As for `Fc1cc(F)c(Nc2nc(-c3cccnc3)nc3ccccc23)cc1Br` [KP-100], in data set [1], the “toxicity LC50 (µM)” value is reported as “non-toxic”.

`Cn1nnc2cc(Nc3nc(-c4cccnc4)nc4ccccc34)ccc21` [AMR.372]: the IC50 in data set [3] is 6.4 µM.

`Cc1cccc(Nc2nc(-c3ccncc3)nc3ccccc23)c1C` [AMR.354]: the IC50 in data set [3] worked out at 165 µM.

Consider `CN(C)c1ccc(Nc2nc(-c3ccc(Cl)cc3Cl)nc3ccccc23)cc1` [AMR.402], for which the IC50 in data set [3] is 26.7 µM.

Regarding `O=[N+]([O-])c1ccc(F)c(Nc2nc(-c3cccnc3)nc3ccccc23)c1` [AMR.335], the concentration for half-maximal inhibition (IC50) in data set [3] was found to be 6.5 µM.

In the case of `COc1ccc(Nc2nc(-c3ccncc3)nc3ccccc23)cc1OC` [AMR.350], the IC50 in data set [3] is more than 200 µM.

Consider `c1ccc2c(Nc3ccc4[nH]nnc4c3)nc(-c3ccncc3)nc2c1` [AMR.358], for which the IC50 in data set [3] is 5 µM.
